Laboratory results reported in patent US12134607B2, “Crystals of tetrahydronaphthyl urea derivative” (MOCHIDA PHARMACEUTICAL CO., LTD., priority 2017, dated 2024).
≈ marks a conversion by molar mass, not a printed value. Read-outs that look alike come from different tables or passages of the source.

Tests used:
[1] = Pharmacokinetic study, single oral dose in rats; type: in vivo; settings: male, Crl:CD (SD), rat, plasma, po, 600 mg/kg
Procedure: (Pharmacology Experiment 5): Pharmacokinetic Study
Plasma sample obtained by centrifugation of blood (12000×g, for 5 minutes, at 4° C.) was measured to determine plasma concentration of the test compound using high performance liquid chromatography/mass spectrometry. Similarly, concentrations of standard solutions containing the test compound at known concentrations (0.001, 0.002, 0.005, 0.01, 0.02, 0.05, 0.1, 0.2, 0.5, 1, 2, and 5 μg/mL) were measured. And then, the plasma concentration (μg/mL) of the compound (1) was calculated from the prepared calibration curve to obtain the maximum plasma concentration (Cmax (μg/mL)) and the area under the plasma concentration-time curve (AUC (μg·hr/mL)). Measurement conditions can be appropriately adjusted by a person skilled in the art.

[2] = Determination of equilibrium solubility in phosphate buffer solution with pH 6.8; type: physicochemical; settings: pH 6.8 phosphate buffer, mean value of three measurements
Description: (Test Example 1) Determination of Equilibrium Solubility (Determination of Solubility in Phosphate Buffer Solution with pH 6.8)
Each of the equilibrium solubilities (solubility in phosphate buffer solution with pH 6.8) of Type I (Example 2), III (Example 3), V (Example 4) and VI crystals (Example 5) of 1-((1R,2R)-2-hydroxy-4,4-dimethyl-1,2,3,4-tetrahydronaphthalen-1-yl)-3-(5-methyl-6-(2-methylpyrimidin-5-yl)-2-phenylpyridin-3-yl)urea obtained in the above (Example 2) to (Example 5) was determined as follows:
Water was added a weighed potassium dihydrogen phosphate of 2.7 g to make 100 mL volume to prepare 0.2 mol/L potassium dihydrogen phosphate solution. Water was added a weighed disodium hydrogen phosphate […] of 7.2 g to make 100 mL volume to prepare 0.2 mol/L disodium hydrogen phosphate solution. A pH 6.8 phosphate buffer solution was prepared by diluting a mixture of 0.2 mol/L potassium dihydrogen phosphate solution (14.8 mL) and 0.2 mol/L disodium hydrogen phosphate solution (10.0 mL) with water (173.6 mL).
Approximately 1 mg of the each crystal from (Example 2) to (Example 5) was weighed into a screw tube, and a pH 6.8 phosphate buffer solution (1 mL) was added. An isothermal shaker (M-BR-022UP) was used to incubate the sample at 37° C. and 1000 rpm for 24 hours. 100 μL solution were sampled at 1, 2, 6, and 24 hours after the start of incubation, and were filtered using a centrifuge (HITACHI, Himac cF 9RX, at 25° C., at 1500 rpm, for 30 seconds) with a filter (Millipore: Multiscreen, MSSLBPC10) so as to remove insoluble materials. A 20 μL of the filtrate was quantified, and diluted with a solution (180 μL, pH 9.0) of 20 vol % tetrahydrofuran and 80 vol % ammonium bicarbonate aqueous solution (10 mM). A 10 μL of the prepared solution was quantified, and diluted with a solution (190 μL, pH 9.0) of 20 vol % tetrahydrofuran and 80 vol % ammonium bicarbonate aqueous solution (10 mM). The prepared solution was analyzed by ultra performance liquid chromatography (UPLC) under the following measurement conditions, and the concentration of the compound in the solution was calculated based on a previously prepared calibration curve. Three times of measurements were made for each example compound, and the mean values and standard deviations of the three measurements are shown as a result in Table 6.
<UPLC measurement conditions> Equipment: ACQUITY UPLC H-Class (Waters) Detector: PDA (200-500 nm) Column: BEH C18 2.1×50 mm Measurement wavelength: 270 nm Column temperature: 40° C. Injection amount: 10 μL Mobile phase: • Solvent A, acetonitrile; • Solvent B, 10 mM ammonium bicarbonate aqueous solution (pH 9.0) Gradient conditions: […]

Storage stability test = type: physicochemical
Procedure: For the stability test, approximately 20 mg of the test sample was stored at 25° C./60% RH or at 40° C./75% RH in open or closed condition for 1 month using a small environmental tester SH-641 (manufactured by Espec), and changes in purity and in crystalline form were observed.
For purity measurement, equipment of Waters ACQUITY UPLC H-Class (manufactured by Waters) and column of Waters ACQUITY BEH C18 (particle diameter […], size 2.1×50 mm) are used. For the mobile phase, 10 mmol/L ammonium bicarbonate buffer pH 9.0 and acetonitrile were used; and the test sample solution at 100 μg/mL in the mixture solvent of THF (tetrahydrofuran):10 mmol/L ammonium bicarbonate buffer (20:80) was prepared.
(Test Example 2) Storage Stability Test
The type I (Example 2), III (Example 3), V (Example 4) and VI (Example 5) crystals (each about 20 mg) of 1-((1R,2R)-2-hydroxy-4,4-dimethyl-1,2,3,4-tetrahydronaphthalen-1-yl)-3-(5-methyl-6-(2-methylpyrimidin-5-yl)-2-phenylpyridin-3-yl)urea obtained in the above Examples 2 to 5 were stored in glass bottles under the respective conditions described in Table 7. After completion of the storage period, the retrieved sample was confirmed on the purity by high performance liquid chromatography and on the crystal form by powder X-ray diffraction analysis as in the Examples.

[3] = Photostability test according to ICH Q1B; type: physicochemical
Procedure: (Test Example 3) Photostability Test
The type I (Example 2), III (Example 3), V (Example 4), and VI (Example 5) crystals (each about 20 mg) of 1-((1R,2R)-2-hydroxy-4,4-dimethyl-1,2,3,4-tetrahydronaphthalen-1-yl)-3-(5-methyl-6-(2-methylpyrimidin-5-yl)-2-phenylpyridin-3-yl)urea obtained in the above Examples 2 to 5 were placed in a transparent plastic container and covered, and were subjected to photostability test according to the ICH Q1B (Guidelines on Photostability Testing of New Active Substances and Medicinal Products) described in Table 8 (Here, the photostability test samples were stored at about 25° C. under separate lamps which respectively emits visible light and UV-A light so that the total light exposure should be 1.2 million lux hours and 200 W hours/m^2 or more, respectively. A 5-day study should be designated as “0.5 ICH” and a 10-day study as “1 ICH”). […] After completion of the test, the retrieved sample was confirmed on the purity by high performance liquid chromatography and on the crystal form by powder X-ray diffraction analysis as in the Examples.

[4] = 25° C./60% RH, closed for 1 month
[5] = 25° C./60% RH, open for 1 month
[6] = 40° C./75% RH, closed for 1 month
[7] = 40° C./75% RH, open for 1 month
[8] = Shielded from light by aluminum foil, 0.5 ICH
[9] = Shielded from light by aluminum foil, 1 ICH
[10] = Shielded from light by aluminum foil, Before the test

SMILES | Chemical purity (%) (Storage stability test; [4]) | Crystalline form after completion of storage period (Storage stability test; [4]) | Chemical purity (%) (Storage stability test; [5]) | Crystalline form after completion of storage period (Storage stability test; [5]) | Chemical purity (%) (Storage stability test; [6]) | Crystalline form after completion of storage period (Storage stability test; [6]) | Chemical purity (%) (Storage stability test; [7]) | Crystalline form after completion of storage period (Storage stability test; [7]) | Chemical purity (%) (Storage stability test; Before the test) | Crystalline form after completion of storage period (Storage stability test; Before the test) | Chemical purity (%) ([3]; Exposure, 0.5 ICH (5-day)) | Crystalline form after completion of storage period ([3]; Exposure, 0.5 ICH (5-day)) | Chemical purity (%) ([3]; Exposure, 1 ICH (10-day)) | Crystalline form after completion of storage period ([3]; Exposure, 1 ICH (10-day)) | Chemical purity (%) ([3]; Exposure, Before the test) | Crystalline form after completion of storage period ([3]; Exposure, Before the test) | Chemical purity (%) [3, 8] | Crystalline form after completion of storage period [3, 8] | Chemical purity (%) [3, 9] | Crystalline form after completion of storage period [3, 9] | also measured
Cc1ncc(-c2nc(-c3ccccc3)c(NC(=O)N[C@@H]3c4ccccc4C(C)(C)C[C@H]3O)cc2C)cn1 [Example 2, 1-((1R,2R)-2-hydroxy-4,4-dimethyl-1,2,3,4-tetrahydronaphthalen-1-yl)-3-(5-methyl-6-(2-methylpyrimidin-5-yl)-2-phenylpyridin-3-yl)urea] | 99.8% | Type I crystal | 99.8% | Type I crystal | 99.8% | Type I crystal | 99.8% | Type I crystal | 99.8% | Type I crystal | 99.2% | Type I crystal | 98.9% | Type I crystal | 99.8% | Type I crystal | 99.8% | Type I crystal | 99.8% | Type I crystal | AUC ([1]; oral single dose 600 mg/kg in 0.5 w/v % methylcellulose 400, read-out: Area Under Plasma Concentration (AUC)): 561 µg·h/mL; Cmax ([1]; oral single dose 600 mg/kg in 0.5 w/v % methylcellulose 400, read-out: Maximum Plasma Concentration (Cmax)): 29700 ng/mL; Solubility ([2]; 37° C.): 33.2 µg/mL (≈ 67.3 µM); Moisture absorption (Storage stability test; during the storage period): no moisture absorption was observed; Chemical and physical stability over the test period (Storage stability test; storage for 1 month, result in words): chemically and physically stable; Chemical purity (%) [3, 10]: 99.8%; Crystalline form after completion of storage period [3, 10]: Type I crystal; Stability against light ([3]; result in words, listed as type I crystal): stable against light
Cc1ncc(-c2nc(-c3ccccc3)c(NC(=O)N[C@@H]3c4ccccc4C(C)(C)C[C@H]3O)cc2C)cn1 [Example 5, 1-((1R,2R)-2-hydroxy-4,4-dimethyl-1,2,3,4-tetrahydronaphthalen-1-yl)-3-(5-methyl-6-(2-methylpyrimidin-5-yl)-2-phenylpyridin-3-yl)urea] | 99.9% | Type VI crystal | 99.9% | Type VI crystal | 99.9% | Type VI crystal | 99.9% | Type VI crystal | 99.8% | Type VI crystal | 99.7% | Type I crystal | 99.5% | Type I crystal | 99.8% | Type I crystal | 99.8% | Type I crystal | 99.8% | Type I crystal | Solubility ([2]; phosphate buffer solution pH 6.8, 37 °C, pH 6.8, aqueous buffer, thermodynamic from solid, read-out: Solubility): 41.1 µg/mL (≈ 83.3 µM); Crystal form change during storage (Storage stability test; storage (open system)): transferred to the type I crystal; Chemical purity (%) [3, 10]: 99.8%; Crystalline form after completion of storage period [3, 10]: Type VI crystal; Crystal form change during photostability tests ([3]; result in words): transferred to the type I crystal; Stability against light ([3]; result in words, listed as type VI crystal): unstable against light
